1 substance from patent US6582718B2, “Cyclosporin compositions” (Novartis AG, priority 1992, dated 2003) can be followed below.

This data set can be described thus: Irritation of the eyes by surfactants used in eye-drops. From the text: In an attempt to solve these problems, studies have been conducted with various surfactants which are currently used for formulating medical substances with low solubility in water, especially the most commonly used surfactants polysorbate 80 and polyoxyethylene hydrogenated castor oil.

As for Polyoxyethylene hydrogenated castor oil, the “irritation of the eyes” value is “strongly irritate the eyes”.
